In patent publication US8486939B2, “Pyrimidinyl and 1,3,5-triazinyl benzimidazoles and their use in cancer therapy” (Pathway Therapeutics Inc., priority 2009, dated 2013):

Columns and labels:
p110β/p85 = p110β/p85 (Homo sapiens, UniProt P42338); assay: Inhibition of isolated enzyme (lipid kinase assay, [γ33P]ATP, TLC); format: biochemical; settings: recombinant enzyme, 100 μM ATP, 1 hr room temperature, average of two experiments
Experimental: (§1) Compounds were evaluated for their ability to inhibit Class I PI 3-kinase enzymes p110δ/p85, p110α/p85, and p110β/p85. Reaction mixtures comprising 0.1 μg of a recombinant enzyme, 10 μg of L-α-phosphatidylinositol, and 2× Lipid Kinase Buffer (40 mM Tris-HCl, pH 7.4, 200 mM NaCl, 1 mM EDTA), which contains either DMSO only as a control or the test compound in DMSO (the final DMSO concentration is 1%), were activated by the addition of an ATP mix (5 mM MgCl2, 100 μM ATP, and 0.1 μL [γ^33P]ATP). Reactions were incubated at room temperature for 1 hr, and then stopped by the addition of 1M HCl. The lipids were then extracted using a two step procedure. Firstly, 200 μL of chloroform/methanol (1:1) was added, the biphasic reactions mixed and centrifuged briefly, and the inorganic phase was removed and discarded. Following this, 80 μL of methanol:HCl (1:1) was added and the same procedure followed. The organic phase (70 μL) was then transferred to a clean 1.6 mL tube and the reactions were dried using a Speedvac, with no heating, for […]. The reactions were spotted onto TLC plates (Merck Ltd) and developed for 1 hr in propanol-1:2 M acetic acid (13:7). The TLC plates were then dried at room temperature and quantified using a phosphorimager (StormImager, Amersham). Nine compound concentrations were used for each test compound to determine its IC50 value. Each experiment was performed twice and the average IC50 value is used herein.

p110α/p85 = p110α/p85 (Homo sapiens, UniProt P42336); assay: as above; format: biochemical; settings: recombinant enzyme, 100 μM ATP, 1 hr room temperature, average of two experiments
Experimental: as §1

p110δ/p85 = p110δ/p85 (Homo sapiens, UniProt O00329); assay: as above; format: biochemical; settings: recombinant enzyme, 100 μM ATP, 1 hr room temperature, average of two experiments
Experimental: as §1

NZB5 = assay: Cellular growth inhibition (3H-thymidine incorporation); format: cell-based; settings: Homo sapiens, five days incubation, 3H-thymidine over the last 6 hrs, read-out: Cell IC50* NZB5
Experimental: (§2) The compounds were evaluated against two early passage human cell lines NZB5 and NZOV9 (Marshall et al., Oncol. Res. 2004, 14, 297). The cells were grown in ITS medium (α-modified minimal essential medium supplemented insulin, transferrin, selenite, and 5% fetal bovine serum) and grown on 96-well tissue culture plates under an atmosphere of 5% O2, 5% CO2, and 90% N2. Individual wells contained 500-1,000 cells (depending on the growth rate) in a volume of 150 μL. Compounds were added at 10-fold concentration steps to a maximum of 20 μM and plates were incubated for five days, with ^3H-thymidine being added over the last 6 hrs. Cells were harvested and incorporated radioactivity measured. Duplicate samples were analyzed for each compound dose with multiple control samples. Data were fitted by a least-squares method to an exponential of the form y=y0+ae^−bx, where y is the radioactivity (corrected for background and normalized to 100% of the control), x is the […], and y0, a, and b are variables, and the IC50 value defined as the compound concentration reducing ^3H-thymidine levels by 50%.

NZOV9 = assay: as above; format: cell-based; settings: Homo sapiens, five days incubation, 3H-thymidine over the last 6 hrs, read-out: Cell IC50* NZOV9
Experimental: as §2

p110δ/p85, sequence (O00329 whole entry, species assumed): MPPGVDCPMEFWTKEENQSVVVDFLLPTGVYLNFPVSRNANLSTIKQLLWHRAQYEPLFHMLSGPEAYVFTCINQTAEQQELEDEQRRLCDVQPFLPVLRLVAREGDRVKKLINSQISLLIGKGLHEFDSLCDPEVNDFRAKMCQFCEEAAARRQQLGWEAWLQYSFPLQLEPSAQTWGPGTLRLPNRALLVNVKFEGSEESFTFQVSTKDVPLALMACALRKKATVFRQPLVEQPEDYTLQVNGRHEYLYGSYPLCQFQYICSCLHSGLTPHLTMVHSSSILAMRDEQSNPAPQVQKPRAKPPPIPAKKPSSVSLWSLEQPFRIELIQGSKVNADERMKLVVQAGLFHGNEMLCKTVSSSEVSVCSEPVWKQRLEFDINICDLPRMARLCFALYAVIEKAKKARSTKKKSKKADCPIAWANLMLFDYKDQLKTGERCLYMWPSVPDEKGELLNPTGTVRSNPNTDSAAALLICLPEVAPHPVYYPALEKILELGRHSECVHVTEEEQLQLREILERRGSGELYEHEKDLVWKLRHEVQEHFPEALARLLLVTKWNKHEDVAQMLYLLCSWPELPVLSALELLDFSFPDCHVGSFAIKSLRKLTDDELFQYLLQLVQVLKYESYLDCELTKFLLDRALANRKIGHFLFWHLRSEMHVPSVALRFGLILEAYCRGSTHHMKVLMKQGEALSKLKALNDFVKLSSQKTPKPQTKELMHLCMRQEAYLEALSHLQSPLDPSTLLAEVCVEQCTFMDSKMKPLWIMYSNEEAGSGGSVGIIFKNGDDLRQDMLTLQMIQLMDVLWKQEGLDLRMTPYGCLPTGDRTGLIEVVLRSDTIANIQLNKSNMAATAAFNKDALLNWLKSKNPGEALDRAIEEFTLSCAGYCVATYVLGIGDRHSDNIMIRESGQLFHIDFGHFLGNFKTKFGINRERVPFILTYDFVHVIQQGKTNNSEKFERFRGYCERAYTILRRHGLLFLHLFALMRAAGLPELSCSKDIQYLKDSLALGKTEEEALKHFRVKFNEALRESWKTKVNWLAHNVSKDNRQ
p110δ/p85, sequence (P27986 whole entry partner, species assumed): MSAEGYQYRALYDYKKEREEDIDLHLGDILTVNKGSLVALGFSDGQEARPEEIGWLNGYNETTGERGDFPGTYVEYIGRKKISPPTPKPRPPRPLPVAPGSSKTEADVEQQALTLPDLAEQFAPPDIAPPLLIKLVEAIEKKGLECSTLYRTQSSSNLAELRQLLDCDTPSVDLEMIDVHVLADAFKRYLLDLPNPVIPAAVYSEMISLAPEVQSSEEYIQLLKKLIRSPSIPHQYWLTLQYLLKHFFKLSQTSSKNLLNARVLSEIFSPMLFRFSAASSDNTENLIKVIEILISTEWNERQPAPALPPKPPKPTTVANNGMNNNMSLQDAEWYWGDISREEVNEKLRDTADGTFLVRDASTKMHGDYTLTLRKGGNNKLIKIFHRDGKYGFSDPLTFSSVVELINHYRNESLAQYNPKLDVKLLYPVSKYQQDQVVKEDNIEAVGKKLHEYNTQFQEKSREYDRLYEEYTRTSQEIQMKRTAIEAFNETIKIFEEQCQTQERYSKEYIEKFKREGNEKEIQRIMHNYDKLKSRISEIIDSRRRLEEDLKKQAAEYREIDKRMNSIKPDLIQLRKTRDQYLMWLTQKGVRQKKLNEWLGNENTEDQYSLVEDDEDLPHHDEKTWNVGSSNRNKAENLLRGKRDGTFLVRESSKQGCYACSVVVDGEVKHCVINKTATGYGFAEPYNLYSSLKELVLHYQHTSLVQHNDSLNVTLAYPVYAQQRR
p110α/p85, sequence (P42336 whole entry): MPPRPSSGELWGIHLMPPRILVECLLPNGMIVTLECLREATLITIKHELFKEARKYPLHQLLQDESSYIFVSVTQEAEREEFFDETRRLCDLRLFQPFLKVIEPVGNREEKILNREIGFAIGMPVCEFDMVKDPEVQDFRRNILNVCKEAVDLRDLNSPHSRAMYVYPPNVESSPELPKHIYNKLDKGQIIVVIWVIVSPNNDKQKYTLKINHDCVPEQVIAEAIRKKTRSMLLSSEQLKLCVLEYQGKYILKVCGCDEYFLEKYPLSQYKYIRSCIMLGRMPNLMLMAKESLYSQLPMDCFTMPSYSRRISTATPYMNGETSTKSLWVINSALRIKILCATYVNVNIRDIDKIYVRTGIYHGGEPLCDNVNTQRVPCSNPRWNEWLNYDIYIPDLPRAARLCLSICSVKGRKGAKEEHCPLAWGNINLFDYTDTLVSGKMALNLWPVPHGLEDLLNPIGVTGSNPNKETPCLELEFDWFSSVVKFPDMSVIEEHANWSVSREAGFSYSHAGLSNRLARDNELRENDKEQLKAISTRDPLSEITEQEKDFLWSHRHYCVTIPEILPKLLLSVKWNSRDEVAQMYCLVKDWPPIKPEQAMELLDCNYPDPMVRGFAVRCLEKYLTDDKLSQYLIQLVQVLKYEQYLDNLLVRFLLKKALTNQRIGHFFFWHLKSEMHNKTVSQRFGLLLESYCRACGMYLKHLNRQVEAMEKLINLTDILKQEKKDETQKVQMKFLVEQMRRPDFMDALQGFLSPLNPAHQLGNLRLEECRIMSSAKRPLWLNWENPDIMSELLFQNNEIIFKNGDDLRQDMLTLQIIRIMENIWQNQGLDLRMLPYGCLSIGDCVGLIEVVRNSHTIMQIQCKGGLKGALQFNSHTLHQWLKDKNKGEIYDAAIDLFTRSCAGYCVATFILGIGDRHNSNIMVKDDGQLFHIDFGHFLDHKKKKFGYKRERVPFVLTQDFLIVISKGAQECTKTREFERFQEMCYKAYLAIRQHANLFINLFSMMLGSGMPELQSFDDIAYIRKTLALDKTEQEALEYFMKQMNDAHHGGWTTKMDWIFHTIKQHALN
p110α/p85, sequence (P27986 whole entry partner): as the sequence (P27986 whole entry partner, species assumed) above
p110β/p85, sequence (P42338 whole entry, species assumed): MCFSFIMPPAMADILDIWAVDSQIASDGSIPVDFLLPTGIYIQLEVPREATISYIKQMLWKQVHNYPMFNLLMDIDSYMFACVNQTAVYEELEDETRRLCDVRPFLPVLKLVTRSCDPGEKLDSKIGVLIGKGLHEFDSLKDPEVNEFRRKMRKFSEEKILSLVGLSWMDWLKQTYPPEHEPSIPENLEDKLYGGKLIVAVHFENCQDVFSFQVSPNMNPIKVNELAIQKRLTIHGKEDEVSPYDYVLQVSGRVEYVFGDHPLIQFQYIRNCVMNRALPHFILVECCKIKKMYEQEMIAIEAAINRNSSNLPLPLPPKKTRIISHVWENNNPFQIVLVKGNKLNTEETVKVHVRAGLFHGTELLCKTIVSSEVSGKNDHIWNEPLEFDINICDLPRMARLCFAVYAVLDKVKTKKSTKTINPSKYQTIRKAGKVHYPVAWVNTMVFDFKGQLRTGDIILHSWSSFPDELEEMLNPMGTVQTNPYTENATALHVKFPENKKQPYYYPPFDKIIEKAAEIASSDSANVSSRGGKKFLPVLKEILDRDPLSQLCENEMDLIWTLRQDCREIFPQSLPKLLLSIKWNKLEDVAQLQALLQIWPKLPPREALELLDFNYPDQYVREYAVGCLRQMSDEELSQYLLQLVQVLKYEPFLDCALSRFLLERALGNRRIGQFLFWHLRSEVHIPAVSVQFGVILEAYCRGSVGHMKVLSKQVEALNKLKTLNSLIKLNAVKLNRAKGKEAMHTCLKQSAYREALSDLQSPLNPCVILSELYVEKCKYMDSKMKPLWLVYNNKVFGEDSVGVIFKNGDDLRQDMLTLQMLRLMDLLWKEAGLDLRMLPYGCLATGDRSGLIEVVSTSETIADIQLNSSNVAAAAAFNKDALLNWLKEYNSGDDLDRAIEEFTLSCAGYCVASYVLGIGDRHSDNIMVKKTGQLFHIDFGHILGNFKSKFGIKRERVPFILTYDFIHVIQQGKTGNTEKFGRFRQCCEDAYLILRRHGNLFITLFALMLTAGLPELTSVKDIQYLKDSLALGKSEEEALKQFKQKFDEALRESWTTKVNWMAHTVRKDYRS
p110β/p85, sequence (P27986 whole entry partner, species assumed): as the sequence (P27986 whole entry partner, species assumed) above

With `FC(F)c1nc2ccccc2n1-c1nc(Nc2cncnc2)nc(N2CCOCC2)n1` [Example 35, 4-[2-(difluoromethyl)-1H-benzimidazol-1-yl]-6-(4-morpholinyl)-N-(5-pyrimidinyl)-1,3,5-triazin-2-amine] the IC50 (p110β/p85) was 100 to 1000 nM.
With `COc1cccc2c1nc(C(F)F)n2-c1nc(Nc2cccnn2)nc(N2CCOCC2)n1` [Example 33, 4-[2-(difluoromethyl)-4-methoxy-1H-benzimidazol-1-yl]-6-(4-morpholinyl)-N-(3-pyridazinyl)-1,3,5-triazin-2-amine] the IC50 (p110α/p85) was < 100 nM, the IC50 (p110β/p85) was 100 to 1000 nM and the IC50 (p110δ/p85) was < 100 nM. The IC50 (NZB5) was 100 to 1000 nM, the IC50 (NZOV9) was < 100 nM and the melting point was 261 to 263 °C.
For `FC(F)c1nc2ccccc2n1-c1nc(Nc2ncccn2)nc(N2CCOCC2)n1` [Example 19, 4-[2-(difluoromethyl)-1H-benzimidazol-1-yl]-6-(4-morpholinyl)-N-(2-pyrimidinyl)-1,3,5-triazin-2-amine], the IC50 (p110α/p85) was 100 to 1000 nM, the IC50 (NZB5) was 100 to 1000 nM and the IC50 (NZOV9) was 100 to 1000 nM. The melting point was 261 to 263 °C.
With `FC(F)c1nc2ccccc2n1-c1nc(NCc2ccccn2)nc(N2CCOCC2)n1` [Example 13, 4-[2-(difluoromethyl)-1H-benzimidazol-1-yl]-6-(4-morpholinyl)-N-(2-pyridinylmethyl)-1,3,5-triazin-2-amine] the IC50 (p110α/p85) was < 100 nM, the IC50 (p110β/p85) was < 100 nM and the IC50 (p110δ/p85) was < 100 nM. For the same molecule, the IC50 (NZB5) was 100 to 1000 nM, the IC50 (NZOV9) was 100 to 1000 nM and the melting point was 192 to 193 °C.
Work on `FC(F)c1nc2ccccc2n1-c1nc(NCc2ccncc2)nc(N2CCOCC2)n1` [Example 15, 4-[2-(difluoromethyl)-1H-benzimidazol-1-yl]-6-(4-morpholinyl)-N-(4-pyridinylmethyl)-1,3,5-triazin-2-amine] yielded an IC50 (p110α/p85) of 100 to 1000 nM, an IC50 (NZB5) of 100 to 1000 nM and an IC50 (NZOV9) of 100 to 1000 nM. It also gave a melting point of 188 to 190 °C.
With `CN(Cc1ccccc1)c1nc(N2CCOCC2)nc(-n2c(C(F)F)nc3ccccc32)n1` [Example 9, N-benzyl-4-[2-(difluoromethyl)-1H-benzimidazol-1-yl]-N-methyl-6-(4-morpholinyl)-1,3,5-triazin-2-amine] the IC50 (p110α/p85) was 1000 to 10000 nM, the IC50 (p110β/p85) was 100 to 1000 nM and the IC50 (p110δ/p85) was < 100 nM. It also gave an IC50 (NZOV9) of 100 to 1000 nM and a melting point of 147 to 150 °C.
With `COc1ncc(Nc2nc(N3CCOCC3)nc(-n3c(C(F)F)nc4c(OC)cccc43)n2)cn1` [Example 40, 4-[2-(difluoromethyl)-4-methoxy-1H-benzimidazol-1-yl]-N-(2-methoxy-5-pyrimidinyl)-6-(4-morpholinyl)-1,3,5-triazin-2-amine] the IC50 (p110α/p85) was < 100 nM, the IC50 (p110β/p85) was 100 to 1000 nM and the IC50 (p110δ/p85) was < 100 nM. The IC50 (NZB5) was 100 to 1000 nM and the IC50 (NZOV9) was 100 to 1000 nM.
With `FC(F)c1nc2ccccc2n1-c1nc(Oc2cccnc2)nc(N2CCOCC2)n1` [Example 24, 2-(difluoromethyl)-1-[4-(4-morpholinyl)-6-(3-pyridinyloxy)-1,3,5-triazin-2-yl]-1H-benzimidazole] the IC50 (p110α/p85) was 100 to 1000 nM, the IC50 (NZB5) was 1000 to 10000 nM and the IC50 (NZOV9) was 1000 to 10000 nM. It also gave a melting point of 229 to 231 °C.
For `COc1cccc2c1nc(C(F)F)n2-c1nc(N2CCOCC2)nc(-n2cccn2)n1` [Example 63, 2-(Difluoromethyl)-4-methoxy-1-[4-(4-morpholinyl)-6-(1H-pyrazol-1-yl)-1,3,5-triazin-2-yl]-1H-benzimidazole], the IC50 (p110α/p85) was < 100 nM, the IC50 (p110δ/p85) was < 100 nM and the melting point was 274 to 277 °C.
For `CN(c1cncnc1)c1nc(N2CCOCC2)nc(-n2c(C(F)F)nc3ccccc32)n1` [Example 44, 4-[2-(difluoromethyl)-1H-benzimidazol-1-yl]-N-methyl-6-(4-morpholinyl)-N-(5-pyrimidinyl)-1,3,5-triazin-2-amine], the IC50 (p110α/p85) was < 100 nM, the IC50 (p110δ/p85) was < 100 nM and the melting point was 202 to 205 °C.
With `FC(F)c1nc2ccccc2n1-c1nc(Nc2ccncn2)nc(N2CCOCC2)n1` [Example 20, 4-[2-(difluoromethyl)-1H-benzimidazol-1-yl]-6-(4-morpholinyl)-N-(4-pyrimidinyl)-1,3,5-triazin-2-amine] the IC50 (p110α/p85) was < 100 nM, the IC50 (p110δ/p85) was < 100 nM and the IC50 (NZB5) was 100 to 1000 nM. For the same molecule, the IC50 (NZOV9) was 100 to 1000 nM and the melting point was 233 to 235 °C.
In the case of `COc1cccc2c1nc(C(F)F)n2-c1nc(-c2ccc(N)nc2)nc(N2CCOCC2)n1` [Example 49, 5-[4-[2-(difluoromethyl)-4-methoxy-1H-benzimidazol-1-yl]-6-(4-morpholinyl)-1,3,5-triazin-2-yl]-2-pyridinamine], the IC50 (p110α/p85) is reported as < 100 nM, the IC50 (p110δ/p85) is reported as < 100 nM and the melting point is reported as 259 to 261 °C.
In the case of `FC(F)c1nc2ccccc2n1-c1nc(Nc2cncnc2)nc(N2CCOCC2)n1` [Example 21, 4-[2-(difluoromethyl)-1H-benzimidazol-1-yl]-6-(4-morpholinyl)-N-(5-pyrimidinyl)-1,3,5-triazin-2-amine], the IC50 (p110α/p85) is reported as < 100 nM, the IC50 (p110δ/p85) is reported as < 100 nM and the IC50 (NZB5) is reported as 100 to 1000 nM. For the same molecule, the IC50 (NZOV9) was 100 to 1000 nM and the melting point was 290 to 292 °C.
For `FC(F)c1nc2ccccc2n1-c1nc(Nc2cnccn2)nc(N2CCOCC2)n1` [Example 22, 4-[2-(difluoromethyl)-1H-benzimidazol-1-yl]-6-(4-morpholinyl)-N-(2-pyrazinyl)-1,3,5-triazin-2-amine], the IC50 (p110α/p85) was < 100 nM, the IC50 (p110δ/p85) was < 100 nM and the IC50 (NZB5) was 100 to 1000 nM. The IC50 (NZOV9) was 100 to 1000 nM and the melting point was 271 to 274 °C.
For `COc1cccc2c1nc(C(F)F)n2-c1nc(Nc2cnc(N(C)CCN(C)C)nc2)nc(N2CCOCC2)n1` [Example 42, N^5-[4-[2-(difluoromethyl)-4-methoxy-1H-benzimidazol-1-yl]-6-(4-morpholinyl)-1,3,5-triazin-2-yl]-N^2-[2-(dimethylamino)ethyl]-N^2-methyl-2,5-pyrimidinediamine], the IC50 (p110α/p85) was < 100 nM, the IC50 (p110δ/p85) was < 100 nM and the melting point was 96 to 98 °C.
In the case of `COc1cccc2c1nc(C(F)F)n2-c1nc(N2CCOCC2)nc(N(C)c2cncnc2)n1` [Example 45, 4-[2-(difluoromethyl)-4-methoxy-1H-benzimidazol-1-yl]-N-methyl-6-(4-morpholinyl)-N-(5-pyrimidinyl)-1,3,5-triazin-2-amine], the IC50 (p110α/p85) is reported as < 100 nM, the IC50 (p110δ/p85) is reported as < 100 nM and the melting point is reported as 214 to 217 °C.
In the case of `FC(F)c1nc2ccccc2n1-c1nc(Nc2ccccn2)nc(N2CCOCC2)n1` [Example 16, 4-[2-(difluoromethyl)-1H-benzimidazol-1-yl]-6-(4-morpholinyl)-N-(2-pyridinyl)-1,3,5-triazin-2-amine], the IC50 (p110α/p85) is reported as < 100 nM, the IC50 (p110δ/p85) is reported as < 100 nM and the IC50 (NZB5) is reported as 100 to 1000 nM. It also gave an IC50 (NZOV9) of 100 to 1000 nM and a melting point of 230 to 232 °C.
For `COc1ncc(-c2cc(N3CCOCC3)nc(-n3c(C(F)F)nc4c(OC)cccc43)n2)cn1` [Example 57, 2-[2-(difluoromethyl)-4-methoxy-1H-benzimidazol-1-yl]-6-(4-morpholinyl)-2′-methoxy-4,5′-bipyrimidine], the IC50 (p110α/p85) was < 100 nM, the IC50 (p110δ/p85) was 100 to 1000 nM and the melting point was 238 to 241 °C.
With `COc1cccc2c1nc(C(F)F)n2-c1nc(N2CCOCC2)c2ncn(-c3cncnc3)c2n1` [Example 60, 2-[2-(difluoromethyl)-4-methoxy-1H-benzimidazol-1-yl]-6-(4-morpholinyl)-9-(5-pyrimidinyl)-9H-purine] the IC50 (p110α/p85) was < 100 nM, the IC50 (p110δ/p85) was < 100 nM and the melting point was 248 to 251 °C.
Work on `FC(F)c1nc2ccccc2n1-c1nc(-c2cccnc2)cc(N2CCOCC2)n1` [Example 51, 2-(difluoromethyl)-1-[4-(4-morpholinyl)-6-(3-pyridinyl)-2-pyrimidinyl]-1H-benzimidazole] yielded an IC50 (p110α/p85) of 100 to 1000 nM, an IC50 (p110δ/p85) of 100 to 1000 nM and a melting point of 172 to 179 °C.
`FC(F)c1nc2ccccc2n1-c1nc(Nc2cnc3ccccc3c2)nc(N2CCOCC2)n1` [Example 18, N-[4-[2-(difluoromethyl)-1H-benzimidazol-1-yl]-6-(4-morpholinyl)-1,3,5-triazin-2-yl]-3-quinolinamine] gave an IC50 (p110α/p85) of 100 to 1000 nM, an IC50 (p110δ/p85) of 100 to 1000 nM and an IC50 (NZB5) of 100 to 1000 nM. For the same molecule, the IC50 (NZOV9) was 100 to 1000 nM and the melting point was 270 to 273 °C.
